Data on four compounds can be found in publication PMC4710912, “High Proteolytic Resistance of Spider-Derived Inhibitor Cystine Knots” (International Journal of Peptides, 2015).

One may read the share remaining as what is left of the initial amount, in per cent. A low value points to a greater loss.

Entries after “also recorded” stand apart in the source; their conditions may differ. Where two headings read alike, the source gives them in different places. Bridge positions count the residues as written; N and C are the ends. Peptide text beside a SMILES is read from it.

A short description of data set [1]: in vitro. Particulars: isolated enzyme elastase, pH 8. The procedure: (§1) Human prolactin releasing peptide (hPRP) was used to show a non-ICK example which contains evenly spaced multiple enzyme cleavage sites. […] To mimic gastric degradation of peptides, 10 μL 100 ng/μL pepsin was mixed with 50 μL 100 ng/μL peptides in 1.5 mL tubes containing 20 μL 1 M glycine (pH2.0) and 20 μL distilled water. To study intestinal degradation of peptides, 10 μL 100 ng/μL trypsin was mixed with 50 μL 100 ng/μL peptides in 1.5 mL tubes containing 10 μL 500 mM Tris-HCl (pH8.0) and 30 μL distilled water; 10 μL 100 ng/μL chymotrypsin was mixed with 50 μL 100 ng/μL peptides in 1.5 mL tubes containing 10 μL 500 mM Tris-HCl (pH8.0), 10 μL 100 mM CaCl2, and 20 μL distilled water; 10 μL 100 ng/μL elastase was mixed with each 50 μL 100 ng/μL peptide in 1.5 mL tube containing 10 μL 500 mM Tris-HCl (pH8.0), 10 μL 100 mM KCl, and 20 μL distilled water. Mixtures of peptides and enzymes were incubated at 37°C for 1–4 hours, and 10 μL aliquots was set aside every 1 hour and placed on ice. 5 μL tricine sample buffer was immediately added to the aliquots and denatured at 100°C for 5 minutes to stop digestion.
(§2) Denatured samples were separated by SDS-PAGE using SuperSep Ace 15–20% tricine gel (Wako, Osaka, Japan) at 200 V for 1 hour. Coomassie Brilliant Blue staining of the gel was performed with e-Stain 2.0 Protein Staining System using eStain Protein Staining Pad (GenScript, NJ, USA). Detected bands were digitized by an image scanner and quantified with Image Studio Digits (LI-COR Biosciences, NE, USA).
(§3) Measurements were converted to the rate of degradation compared to the undegraded values. Experiments were repeated in triplicate and results are indicated as means ± SEM. Statistical significance was determined by Tukey-Kramer test and P values of <0.05 were considered significant.

Data set [2] has as its target α-chymotrypsin (Bos taurus, UniProt P00766). Kind of data set: in vitro. To be noted: pH 8. The procedure: as §1, §2, §3
Data set [3] deals with elastase (Sus scrofa, UniProt P00772). Kind of data set: in vitro. Here is the method: as §1, §2, §3
The nature of data set [4]: In vivo ProTx-II clearance from circulation. Particulars: rat. Here is the method: To observe ProTx-II concentration in circulation blood in vivo, three nonfasted male rats were injected with 0.1 mg/mL/kg of ProTx-II from the femoral vein under isoflurane anesthesia. 450 μL blood samples were taken from the tail vein at 0.083 (5 min), 0.25, 0.5, 1, 2, 4, 8, and 24 hours after the injection using Pasteur pipettes coated with heparin sodium. Plasma was obtained by centrifugation at 10,000 g for 3 minutes at 4°C and stored at −25°C protected from light until analysis. Animal experiments were conducted by Nemoto Science Co., Ltd. (Ibaraki, Japan) in accordance with the guideline of the animal experiment ethics committee (authorization number: 14-0024) and under approval of animal experiment ethics committee of AIST (authorization number: 10150125-A-20131029-001).
(§4) For sample preparation, 100 μL plasma was mixed with 20 μL 50% methanol and 200 μL 4% phosphoric acid. Whole sample mixture was added to the Oasis HLB 1 cc/10 mg extraction cartridge (Waters) equilibrated with 1 mL methanol and 1 mL distilled water. The column was washed with 1 mL 5% methanol and eluted with 1 mL methanol. The elute was dried under nitrogen flow and dissolved in 100 μL solvent A/B (30% : 70%, v/v) for LC-MS/MS. 10 μL sample was analyzed by a Waters LC-MS/MS unit; ACQUITY UPLC BEH HILIC, 1.7 μm, 2.1 mm I.D. × 100 mm (Milford, MA) was used at a flow rate of 0.3 mL/min by linear gradient elution (solvent A : solvent B = 30% : 70%, v/v, solvent A: 0.1% TFA, solvent B: acetonitrile) using electrospray ionization for Xevo TQ MS (Waters, MA, USA).

Data set [5] concerns rats. Set-up: method as in PMID 18728100. To be noted: cited from earlier work.
Data set [6] in a line: In vitro ProTx-II degradation in rat blood plasma. In kind it is in vitro ADME. To be noted: 1 μg/mL in rat (male SD) blood plasma, 37°C, 24 hours, aliquots at 0, 2, 4, 8, 24 hours; LC-MS/MS; mean of n = 3. Here is the method:
To observe peptide degradation in vitro, blood was extracted from three 8-week-old male SD rats after anesthesia with isoflurane inhalation and the plasma was separated by centrifugation at 1,850 g for 10 minutes at 4°C. Plasma was stored on ice and used within the day of the experiment. ProTx-II was added to the plasma to make 1 μg/mL mixture and incubated at 37°C for 24 hours, withdrawing 250 μL aliquots at 0, 2, 4, 8, and 24 hours. Samples were kept at −25°C away from light until analysis.
as §4

Data set [7] relates to trypsin. Here is the method:
as §1, with “Mixtures of peptides and enzymes were incubated at 37°C for 1–4 hours, and 10 μL aliquots was set aside every 1 hour and placed on ice. 5 μL tricine sample buffer was immediately added to the aliquots and denatured at 100°C for 5 minutes to stop digestion.” left out
Denatured samples were separated by SDS-PAGE using SuperSep Ace 15–20% tricine gel (Wako, Osaka, Japan) at 200 V for 1 hour. […] Detected bands were digitized by an image scanner and quantified with Image Studio Digits (LI-COR Biosciences, NE, USA).
Measurements were converted to the rate of degradation compared to the undegraded values. […] Statistical significance was determined by Tukey-Kramer test and P values of <0.05 were considered significant.

elastase, sequence (P00772 27-266): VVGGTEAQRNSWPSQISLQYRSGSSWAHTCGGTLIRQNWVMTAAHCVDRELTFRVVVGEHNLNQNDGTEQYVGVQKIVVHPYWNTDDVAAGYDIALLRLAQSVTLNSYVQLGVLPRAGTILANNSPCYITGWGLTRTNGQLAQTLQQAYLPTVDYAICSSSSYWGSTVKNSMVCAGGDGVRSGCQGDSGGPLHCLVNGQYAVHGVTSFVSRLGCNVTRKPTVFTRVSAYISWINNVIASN

In turn, `CC(C)C[C@@H]1NC(=O)[C@@H](NC(=O)CN)CSSC[C@@H]2NC(=O)[C@@H]3CSSC[C@@H](C(=O)N[C@@H](CC(N)=O)C(=O)N[C@@H](Cc4ccccc4)C(=O)N[C@@H](CO)C(=O)N[C@@H](Cc4ccccc4)C(N)=O)NC(=O)[C@H](CC(C)C)NC(=O)[C@H](CCCCN)NC(=O)[C@H](Cc4ccccc4)NC(=O)[C@H](CC(C)C)NC(=O)[C@H](CCCCN)NC(=O)[C@H](CO)NC(=O)[C@H](CSSC[C@H](NC(=O)[C@H](CCCCN)NC(=O)[C@H](Cc4c[nH]c5ccccc45)NC(=O)[C@H](Cc4c[nH]c5ccccc45)NC(=O)[C@H](Cc4ccccc4)NC(=O)[C@H](CCC(=O)O)NC1=O)C(=O)N[C@@H](CC(N)=O)C(=O)N1CCC[C@H]1C(=O)N[C@@H](CC(N)=O)C(=O)N[C@@H](CC(=O)O)C(=O)N[C@@H](CC(=O)O)C(=O)N[C@@H](CCCCN)C(=O)N3)NC(=O)[C@H](CCCCN)NC(=O)[C@H](CC(C)C)NC(=O)[C@H](CCCCN)NC(=O)[C@@H]1CCCN1C(=O)[C@H](CCCNC(=N)N)NC2=O` [GsMTx-4] (H-GCLEFWWKCNPNDDKCCRPKLKCSKLFKLCNFSF-NH2; disulfide 2-17, 9-23, 16-30) came in with a share remaining at 4 h in data set [1] of over 84%. Besides, the “degradation by chymotrypsin, overall result in words” value in data set [2] is given as “not degraded at all”.
Take `CSCC[C@@H]1NC(=O)CNC(=O)[C@H](CCC(=O)O)NC(=O)[C@@H]2CSSC[C@H](NC(=O)[C@@H](N)Cc3ccc(O)cc3)C(=O)N[C@@H](CCC(N)=O)C(=O)N[C@@H](CCCCN)C(=O)N[C@@H](Cc3c[nH]c4ccccc34)C(=O)N[C@@H](CCSC)C(=O)N[C@@H](Cc3c[nH]c4ccccc34)C(=O)N[C@@H]([C@@H](C)O)C(=O)N[C@H]3CSSC[C@H](NC(=O)[C@H](C(C)C)NC1=O)C(=O)N[C@@H](CCCNC(=N)N)C(=O)N[C@@H](CC(C)C)C(=O)N[C@@H](Cc1c[nH]c4ccccc14)C(=O)N[C@H](C(=O)N[C@@H](CCCCN)C(=O)N[C@@H](CCCCN)C(=O)N[C@@H](CCCCN)C(=O)N[C@@H](CC(C)C)C(=O)N[C@@H](Cc1c[nH]c4ccccc14)C(=O)O)CSSC[C@H](NC(=O)[C@H](CCCCN)NC(=O)[C@H](CCCNC(=N)N)NC(=O)[C@H](CCC(=O)O)NC(=O)[C@H](CO)NC(=O)[C@H](CC(=O)O)NC3=O)C(=O)N2` [ProTx-II]: the “peptide remaining undigested with elastase at 4 hours” value in data set [3] (elastase, Tris-HCl pH8.0, KCl, 37°C, 4 hours, SDS-PAGE, CBB staining, band quantification, mean of n = 3) is “over 84%”. This compound also gave a fraction remaining at 4 h in data set [2] (isolated enzyme chymotrypsin) of 86%. Also, the level at 8 h in data set [4] (male, plasma, iv, 0.1 mg/mL/kg into the femoral vein, 8 hours after administration, LC-MS/MS, n = 3, read-out: ProTx-II concentration in circulation blood at 8 hours (detection limit)) is under 30 ng/mL. Also, in data set [4] (0.1 mg/mL/kg into the femoral vein, detection limit 30.0 ng/mL, LC-MS/MS, n = 3), the “time for concentration to drop to the detection limit” value is at most 8 h. Besides, the “concentration in circulation corresponding to the detection limit of 30 ng/mL” value in data set [4] (8 hr, molar conversion of the detection limit) amounted to 7.8 nM. In addition, the mortal plasma concentration in data set [5] (1 mg/kg dosage) is 3 µM. The “dosage reported to be lethal in rats” value in data set [5] was 1 mg/kg. In addition, in data set [6], the “degradation in rat blood plasma in vitro (in words)” value was “not degraded at all; also recorded: No ProTx-II degradation was observed”.
On to `CC(C)C[C@@H]1NC(=O)[C@H](Cc2c[nH]c3ccccc23)NC(=O)[C@H](Cc2ccc(O)cc2)NC(=O)[C@H](CCCNC(=N)N)NC(=O)[C@@H](NC(=O)[C@@H](N)CCC(=O)O)CSSC[C@@H]2NC(=O)[C@@H]3CSSC[C@@H](C(=O)N[C@H](C(=O)N[C@@H](Cc4c[nH]c5ccccc45)C(=O)N[C@@H](CC(=O)O)C(=O)NCC(=O)N[C@H](C(=O)N[C@@H](Cc4ccccc4)C(=O)N[C@@H](CO)C(=O)O)[C@@H](C)O)C(C)C)NC(=O)[C@H](Cc4c[nH]c5ccccc45)NC(=O)CNC(=O)[C@H](Cc4c[nH]cn4)NC(=O)[C@H](CCCNC(=N)N)NC(=O)[C@H](CCCNC(=N)N)NC(=O)[C@H](CO)NC(=O)[C@H](CSSC[C@H](NC(=O)CNC(=O)CNC1=O)C(=O)N[C@@H](CO)C(=O)N[C@@H](C)C(=O)NCC(=O)N[C@@H](CCC(N)=O)C(=O)N[C@@H]([C@@H](C)O)C(=O)N3)NC(=O)[C@H](C(C)C)NC(=O)[C@H](CC(C)C)NC(=O)[C@H](Cc1c[nH]cn1)NC(=O)[C@H](CCCCN)NC2=O` [ProTx-I], for which the amount remaining at 4 h in data set [3] (isolated enzyme elastase, pH 8) amounted to 22%. Further, the “degradation by elastase, overall result in words” value in data set [3] (pH 8) was “degraded”. Moreover, the “degradation by chymotrypsin within 1 hour (in words)” value in data set [2] is recorded as “completely degraded”. In addition, the “digestion by trypsin within 1-hour incubation (in words)” value in data set [7] (pH 8) is recorded as “almost completely digested”.
Regarding `CC[C@H](C)[C@H](NC(=O)CNC(=O)[C@H](CCCNC(=N)N)NC(=O)[C@H](CO)NC(=O)[C@H](C)NC(=O)[C@H](Cc1ccc(O)cc1)NC(=O)[C@H](Cc1c[nH]c2ccccc12)NC(=O)[C@H](C)NC(=O)[C@@H]1CCCN1C(=O)[C@H](CC(N)=O)NC(=O)[C@@H](NC(=O)[C@H](CC(=O)O)NC(=O)[C@@H]1CCCN1C(=O)[C@@H](NC(=O)[C@H](CCCNC(=N)N)NC(=O)[C@@H](NC(=O)[C@H](CCC(=O)O)NC(=O)[C@H](CCSC)NC(=O)[C@H](CO)NC(=O)[C@H](Cc1c[nH]cn1)NC(=O)[C@H](CCCNC(=N)N)NC(=O)[C@H](Cc1c[nH]cn1)NC(=O)[C@@H](NC(=O)[C@H](CCCNC(=N)N)NC(=O)[C@@H](N)CO)[C@@H](C)O)[C@@H](C)CC)[C@@H](C)O)[C@@H](C)CC)C(=O)N[C@@H](CCCNC(=N)N)C(=O)N1CCC[C@H]1C(=O)N[C@H](C(=O)NCC(=O)N[C@@H](CCCNC(=N)N)C(=O)N[C@@H](Cc1ccccc1)C(N)=O)C(C)C` [hPRP, Human prolactin-releasing peptide], the “degradation by elastase, overall result in words” value in data set [3] (elastase, pH8.0, 37°C, up to 4 hours, SDS-PAGE, CBB staining, mean of n = 3) is reported as “eventually digested all”. In addition, in data set [2], the “degradation by chymotrypsin within 1 hour (in words)” value was “completely degraded”. Also, the “digestion by trypsin within 1-hour incubation (in words)” value in data set [7] (10 μL 100 ng/μL trypsin + 50 μL 100 ng/μL peptide, Tris-HCl pH8.0, 37°C, 1 hour, SDS-PAGE, CBB staining, n = 3) is listed as “almost completely digested”.
